Laboratory results from patent US8557530B2, “Use of a TAS2R7 nucleic acid sequence to identify modulators” (Givaudan SA, priority 2008, dated 2013).
One block for each compound: values may come before it.

How the values were obtained:
human TAS2R7 [1] = target: T1, human TAS2R7 (Homo sapiens, UniProt Q9NYW3, L71P); assay: Fluo-4 calcium assay, HEK293T/Gα16-gustducin44 cells transiently expressing TAS2R7; type: cell-based; details: for TAS2R7 ΔF/F0: transiently transfected cells
T1 construct: RSS tag (first 45 amino acids of rat somatostatin receptor subtype 3, membrane export tag) (N); expressed in transfected cells
T1 sequence (Q9NYW3 with tags, fused parts or gaps L71P): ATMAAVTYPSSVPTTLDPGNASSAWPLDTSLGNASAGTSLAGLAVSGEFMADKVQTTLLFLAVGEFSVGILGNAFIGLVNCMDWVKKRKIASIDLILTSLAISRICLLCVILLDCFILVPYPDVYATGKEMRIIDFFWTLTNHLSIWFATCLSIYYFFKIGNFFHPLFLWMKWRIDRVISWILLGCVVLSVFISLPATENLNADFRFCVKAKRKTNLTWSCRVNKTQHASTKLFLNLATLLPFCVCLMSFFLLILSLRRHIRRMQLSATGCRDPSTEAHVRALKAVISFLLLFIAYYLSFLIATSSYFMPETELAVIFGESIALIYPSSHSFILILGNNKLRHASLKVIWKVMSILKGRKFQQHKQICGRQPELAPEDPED
Description: On day 0, the HEK293T/Gα16-gustducin 44 cells were plated in 96-well black wall, clear-bottom plates at a density of 15,000 cells per well and grown overnight in growth media (DMEM with 10% (v/v) heat-inactivated fetal bovine serum, 2 mM L-glutamine, 100 units/ml penicillin, 100 μg/ml streptomycin).
On day 1, the media was changed to an antibiotic-free and serum-free DMEM. The cells were transfected with TAS2R7 using Lipofectamine 2000 (Invitrogen).
Per well of a 96-well plate, 150 ng of vector DNA (TAS2R7 expression vectors from example 1) was diluted in 12.5 μl of DMEM. In a second tube, 0.3 μl of Lipofectamine 2000 was diluted in 12.5 μl of DMEM and incubated for 5 min at room temperature. After the 5 min, both solutions were mixed and incubated for 20 min at RT. The growth medium in the plate was exchanged for 50 μl of DMEM and 25 μl of the lipofectamine/DNA mixture was incubated on the cells for 3-4 hours at 37° in a humidified atmosphere. This mixture was then replaced with an antibiotic-free, serum-containing DMEM.
24 hours post transfection, the cells were used in the Fluo-4 Calcium Assay as described in Example 3.
(§1) At day 0, the HEK293T cell line expressing Gα16-gustducin44 and a TAS2R7 bitter taste receptor formed as described in examples 2a or 2b was seeded in antibiotic-free growth medium (standard DMEM with 10% (v/v) heat-inactivated fetal bovine serum, 2 mM L-glutamine […]) into black wall/clear bottom 96-well plates, coated with poly(ethylenimine) (0.005% v/v) at a concentration of 15,000 cells per well and incubated for 48 hours in humidified atmosphere (37° C., 5% CO2).
(§2) At the time of the assay, the growth medium was discarded and the cells were in humidified atmosphere (37° C., 5% CO2) for 1 hour with […] of loading buffer consisting of 1.5 μM Fluo-4 AM and 2.5 mM probenecid (Sigma-Aldrich, St. Louis, Mo., U.S.) in DMEM.
(§3) Afterwards, the 96-well plate was washed 5 times with 100 μl of assay buffer (130 mM NaCl, 5 mM KCl, 10 mM HEPES, 2 mM CaCl2, and 5 mM dextrose, pH 7.4) per well, using an automated plate washer (BioTek). The plate was further incubated for 30 minutes at room temperature in the dark to allow for complete de-esterification of the Fluo-4. Afterwards the plate was washed 5 times with 100 μl of assay buffer per well, and reconstituted with 100 μl of assay buffer per well.
(§4) For assay reading the plate was placed in a Fluorometric Imaging Plate Reader (FLIPR) (FLIPR-TETRA™, Molecular Devices, Sunnyvale, Calif., US), and receptor activation was initiated by addition of 20 microliter of a tenfold concentrated agonist stock solution (to give the desired agonist end concentration when added to the 180 microliter assay buffer volume), which was prepared in assay buffer.
(§5) Fluorescence was continuously monitored for 20 seconds to give a signal baseline (averaged to give F0) prior to agonist addition and for 120 seconds after agonist addition. The change in signal divided by F0 gives ΔF/F0 indicated in the table, with ΔF being the maximum signal occurring within the 120 seconds minus the minimum signal (occurring within the 120 seconds after agonist addition).
(§6) The obtained calcium signals were corrected for the response of cells expressing only the G-Protein α subunit (Gα16-gustducin44) and normalized to the fluorescence of cells prior to the stimulus using ΔF/F0 (Fmax−Fmin/F0).
The intracellular calcium response following the addition of L-menthol was determined in a HEK293T cell line stably expressing Gα16-gustducin44 and transiently expressing TAS2R7, formed as described in example 2a.

[2] = tested on: more than 15 of the other human TAS2Rs; assay: Activation test on other human TAS2Rs; type: cell-based; details: more than 15 other human TAS2Rs
human TAS2R7 [3] = target: T1, human TAS2R7; assay: Fluo-4 calcium assay, HEK293T/Gα16-gustducin44 cell line stably expressing TAS2R7; type: cell-based; details: stable cell line
Description: Cell lines that stably expresses TAS2R7 was generated by transfecting the pcDNA3.1Zeo-TAS2R7 construct into HEK293T/Gα16-gustducin 44 cells (formed as described in example 1). The host cell line HEK-293T is commercially available from the American Tissue Culture Collection (ATCC), ATCC®#CRL-11268.
TAS2R7 expressing cells were identified by their response to 2.6 mM L-menthol, which was determined via automated fluorimetric imaging on the FLIPR-TETRA™ (Molecular Devices, Sunnyvale, Calif., U.S.) as described in example 3. One clone was selected, resulting in the HEK293T/Gα16-gustducin 444/TAS2R7 cell line.
as §1, §2, §3, §4, §5
All data was collected from at least two independent experiments each carried out in triplicate.
A concentration-response analysis was performed and EC50 values were calculated by nonlinear regression using the function f(x)=(a−d)/(1+(x/C)^nh)+d; with a=minimum signal, d=maximum signal, nh=hill coefficient, C=EC50, and x=agonist concentration. EC50 is the molar concentration of an agonist which produces 50% of the maximum possible effective response for that agonist.
as §6
To confirm that the cell line formed in example 2b stably expresses the bitter taste receptor TAS2R7, a concentration-response curve for L-menthol was generated. […] The standard deviation (+/−STD) is also indicated.
Each sample (receptors as well as controls) contained a final concentration of 0.02% DMSO to allow for comparability of all examples below.

[4] = tested on: HEK293T Gα16gustducin44 cells (that do not express TAS2R7); assay: Fluo-4 calcium assay, negative control HEK293T Gα16gustducin44 cells that do not express TAS2R7; type: cell-based, human; details: cells without TAS2R7
TAS2R7 = target: T2, TAS2R7 (Homo sapiens, UniProt Q9NYW3); details: known from the art; cited from earlier work
T2 sequence (Q9NYW3 1-318): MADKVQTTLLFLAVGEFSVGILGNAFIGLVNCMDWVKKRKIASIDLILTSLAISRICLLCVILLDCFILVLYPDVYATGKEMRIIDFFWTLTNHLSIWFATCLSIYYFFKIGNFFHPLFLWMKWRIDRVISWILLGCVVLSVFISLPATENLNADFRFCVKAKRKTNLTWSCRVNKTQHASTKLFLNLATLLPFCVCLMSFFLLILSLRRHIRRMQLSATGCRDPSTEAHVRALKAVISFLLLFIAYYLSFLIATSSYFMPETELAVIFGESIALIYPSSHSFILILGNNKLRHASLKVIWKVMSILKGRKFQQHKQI

SMILES: CC1CC[C@H](C(C)C)[C@@H](O)C1 (stereo partly drawn) [D-menthol]
- activation of TAS2R7 (human TAS2R7 [1]; similar results as for L-menthol): shown to activate TAS2R7

- TAS2R7 ΔF/F0 (human TAS2R7 [1]; L-menthol 0.01 mM): 0.09
- TAS2R7 ΔF/F0 (human TAS2R7 [1]; L-menthol 0.02 mM): 0.08
- TAS2R7 ΔF/F0 (human TAS2R7 [1]; L-menthol 0.04 mM): 0.08
- TAS2R7 ΔF/F0 (human TAS2R7 [1]; L-menthol 0.08 mM): 0.10
- TAS2R7 ΔF/F0 (human TAS2R7 [1]; L-menthol 0.16 mM): 0.15
- TAS2R7 ΔF/F0 (human TAS2R7 [1]; L-menthol 0.33 mM): 0.34
- TAS2R7 ΔF/F0 (human TAS2R7 [1]; L-menthol 0.65 mM): 0.41
- TAS2R7 ΔF/F0 (human TAS2R7 [1]; L-menthol 1.30 mM): 0.53
- TAS2R7 ΔF/F0 (human TAS2R7 [1]; L-menthol 2.60 mM): 0.65
- TAS2R7 ΔF/F0 (human TAS2R7 [3]; L-menthol 0.01 mM): 0.09
- TAS2R7 ΔF/F0 (human TAS2R7 [3]; L-menthol 0.02 mM): 0.09
- TAS2R7 ΔF/F0 (human TAS2R7 [3]; L-menthol 0.04 mM): 0.13
- TAS2R7 ΔF/F0 (human TAS2R7 [3]; L-menthol 0.08 mM): 0.12
- TAS2R7 ΔF/F0 (human TAS2R7 [3]; L-menthol 0.16 mM): 0.23
- TAS2R7 ΔF/F0 (human TAS2R7 [3]; L-menthol 0.33 mM): 0.61
- TAS2R7 ΔF/F0 (human TAS2R7 [3]; L-menthol 0.65 mM): 1.03
- TAS2R7 ΔF/F0 (human TAS2R7 [3]; L-menthol 1.30 mM): 1.16
- TAS2R7 ΔF/F0 (human TAS2R7 [3]; L-menthol 2.60 mM): 0.92
- activation of TAS2R7 (human TAS2R7 [3]): activated
- EC50 (human TAS2R7 [3]; nonlinear regression of concentration-response, read-out: calculated EC50 value for TAS2R7): 310 µM
SMILES: CC(C)[C@@H]1CC[C@@H](C)C[C@H]1O [L-menthol]
- activation of other human TAS2Rs [2]: not to be activated
- calcium signalling upon addition (human TAS2R7 [1]; cells transiently expressing human TAS2R7): significant concentration-dependent increase
- Neg. Control ΔF/F0 ([4]; L-menthol 0.01 mM): 0.09
- Neg. Control ΔF/F0 ([4]; L-menthol 0.02 mM): 0.08
- Neg. Control ΔF/F0 ([4]; L-menthol 0.04 mM): 0.08
- Neg. Control ΔF/F0 ([4]; L-menthol 0.08 mM): 0.10
- Neg. Control ΔF/F0 ([4]; L-menthol 0.16 mM): 0.15
- Neg. Control ΔF/F0 ([4]; L-menthol 0.33 mM): 0.34
- Neg. Control ΔF/F0 ([4]; L-menthol 0.65 mM): 0.41
- Neg. Control ΔF/F0 ([4]; L-menthol 1.30 mM): 0.53
- Neg. Control ΔF/F0 ([4]; L-menthol 2.60 mM): 0.65
- change above the background signal in negative control [4]: did not show a significant change above the background signal

SMILES: CCN(CC)CCCC(C)Nc1ccnc2cc(Cl)ccc12 (centres unmarked) [chloroquine]
- response of TAS2R7 (TAS2R7): known to respond

SMILES: C=C[C@H]1C[N@@]2CC[C@H]1C[C@H]2[C@H](O)c1ccnc2ccc(OC)cc12 [quinine]
- response of TAS2R7 (TAS2R7): known to respond
